Assay results taken from PubChem BioAssay (NCI).
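How tested: cells in 96-well plates exposed to compound for 48 hours at five concentrations. TGI denotes the concentration required for complete inhibition of growth.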

Legend:
Test in all cases: inhibition of tumour cell growth, NCI panel, 48 h
[1] = test system: DMS 273 small cell lung
[2] = test system: SK-MEL-28 melanoma
[3] = test system: OVCAR-4 ovarian
[4] = test system: SN12C renal
[5] = test system: OVCAR-8 ovarian
[6] = test system: LOX IMVI melanoma
[7] = test system: SF-268 CNS
[8] = test system: MALME-3M melanoma
[9] = test system: NCI-H226 lung
[10] = test system: A549 NSCLC
[11] = test system: HCT-15 colon
[12] = test system: K-562 leukemia
[13] = test system: HT29 colon
[14] = test system: CAKI-1 renal
[15] = test system: NCI-H522 lung
[16] = test system: RXF 393 renal
[17] = test system: COLO 205 colon
[18] = test system: KM12 colon
[19] = test system: HCT-116 colon
[20] = test system: NCI-H23 lung
[21] = test system: UO-31 renal
[22] = test system: KM20L2 colon
[23] = test system: UACC-62 melanoma
[24] = test system: OVCAR-3 ovarian
[25] = test system: SR leukemia
[26] = test system: SF-539 CNS
[27] = test system: SNB-19 CNS
[28] = test system: EKVX NSCLC
[29] = test system: HCC-2998 colon
[30] = test system: TK-10 renal
[31] = test system: RPMI-8226 leukemia
[32] = test system: SNB-75 CNS
[33] = test system: HOP-18 NSCLC
[34] = test system: HOP-92 NSCLC
[35] = test system: CCRF-CEM leukemia
[36] = test system: M14 melanoma
[37] = test system: SF-295 CNS
[38] = test system: SNB-78 CNS
[39] = test system: UACC-257 melanoma
[40] = test system: HOP-62 NSCLC
[41] = test system: OVCAR-5 ovarian
[42] = test system: M19-MEL melanoma
[43] = test system: A498 renal
[44] = test system: DLD-1 colon
[45] = test system: DMS 114 small cell lung
[46] = test system: MOLT-4 leukemia
[47] = test system: HL-60(TB) leukemia
[48] = test system: XF 498 CNS
[49] = test system: IGROV1 ovarian
[50] = test system: 786-0 renal
[51] = test system: SK-MEL-2 melanoma
[52] = test system: SK-OV-3 ovarian
[53] = test system: SK-MEL-5 melanoma
[54] = test system: NCI-H460 lung
[55] = test system: ACHN renal
[56] = test system: U251 CNS
[57] = test system: SW-620 colon
[58] = test system: LXFL 529 NSCLC
[59] = test system: RXF-631 renal

Measured: TGI

CCOC(=O)C1=C(O)c2c(OC)ccc(OC)c2C(=O)C1=O
> 100 µM: [1] | [2] | [3] | [4] | [5] | [6] | [7] | [8] | [9] | [10] | [11] | [12] | [13] | [14] | [15] | [16] | [17] | [18] | [19] | [20] | [21] | [22] | [23] | [24] | [25] | [26] | [27] | [28] | [29] | [30] | [31] | [32] | [33] | [34] | [35] | [36] | [37] | [38] | [39] | [40] | [41] | [42] | [43] | [44] | [45] | [46] | [47] | [48] | [49] | [50] | [51] | [52] | [53] | [54] | [55] | [56] | [57]

COC(=O)N/N=C(\c1nc2ccc(Cl)cc2[nH]c1=O)C(O)c1ccc([N+](=O)[O-])cc1 (centres undefined)
> 100 µM: [1] | [2] | [3] | [4] | [5] | [6] | [7] | [8] | [9] | [10] | [11] | [12] | [13] | [14] | [15] | [16] | [17] | [18] | [19] | [20] | [21] | [22] | [23] | [24] | [25] | [26] | [27] | [58] | [29] | [31] | [32] | [59] | [34] | [35] | [36] | [37] | [38] | [39] | [40] | [41] | [42] | [44] | [45] | [46] | [47] | [49] | [50] | [52] | [53] | [54] | [56] | [57]
